As a reminder, the EC50 is the midpoint of the concentration-response curve. As usually defined, the Emax is the size of the effect at its maximum, as opposed to the concentration needed.

We go through 25 compounds from patent publication US20230218632A1, “CYCLIC SULFONAMIDE DERIVATIVES AS TRAP1 MODULATORS AND USES THEREOF” (Amathus Therapeutics, Inc., priority 2020, published 2023).

The experiment has as its target T1, TRAP1 enzyme (Homo sapiens, UniProt Q12931).
T1 sequence (Q12931 60-704): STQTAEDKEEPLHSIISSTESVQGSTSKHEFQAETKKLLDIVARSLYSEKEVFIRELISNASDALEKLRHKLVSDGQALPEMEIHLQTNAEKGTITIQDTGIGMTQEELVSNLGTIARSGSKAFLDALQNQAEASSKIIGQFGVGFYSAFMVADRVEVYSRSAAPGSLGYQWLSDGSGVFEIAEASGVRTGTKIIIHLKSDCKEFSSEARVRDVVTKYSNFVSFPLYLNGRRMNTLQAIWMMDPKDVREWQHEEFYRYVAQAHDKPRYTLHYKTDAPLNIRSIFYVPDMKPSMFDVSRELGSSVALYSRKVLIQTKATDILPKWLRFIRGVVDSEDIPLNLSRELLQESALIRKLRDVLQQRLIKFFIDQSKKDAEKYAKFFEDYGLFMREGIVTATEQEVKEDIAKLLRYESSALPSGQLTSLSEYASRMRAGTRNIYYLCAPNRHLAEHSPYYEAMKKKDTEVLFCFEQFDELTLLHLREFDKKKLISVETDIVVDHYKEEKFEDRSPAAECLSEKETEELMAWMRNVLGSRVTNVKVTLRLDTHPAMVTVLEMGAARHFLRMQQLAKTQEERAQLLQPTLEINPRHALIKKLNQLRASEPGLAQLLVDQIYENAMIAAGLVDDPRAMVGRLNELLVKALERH
Put plainly: ADP Glo assay (ATPase activity of TRAP1). Type of experiment: biochemical. The following applies: for EC50: 150 nM Trap1, 20 µM ATP, concentration for half maximal activation, read-out: ADP GLO DRC: GeoMean EC50; for Emax: read-out: ADP GLO DRC: Mean Emax. The protocol: Potency of test compounds to modulate the ATPase activity of TRAP1 enzyme was evaluated using ADP Glo assay. The assay is based on quantification of the ADP generated from ATP in the ATPase reaction. The assay is performed in two steps; first, after the ATPase reaction, an equal volume of ADP-Glo™ Reagent is added to terminate the ATPase reaction and deplete the remaining ATP. Second, the Kinase Detection Reagent is added to simultaneously convert ADP to ATP and allow the newly synthesized ATP to be measured using a luciferase/luciferin reaction.
All the assays were carried out in a 384-well Proxiplate. The buffer used was 25 mM Pipes pH-7.5, 40 mM KCl, 0.05 mM MgCl2, 0.025 % BSA, 0.316 mM EGTA, 0.003% Empigen, 0.01% Igepal. 150 nM Trap1 enzyme was incubated with various concentrations of the test compound (0.79 µM - 100 µM) at 37° C. for 30 mins (except in blank wells). 20 µM ATP was added to each well to start the reaction. The plate was spun for 1 min at 1200 rpm and then incubated at 37° C. for 60 mins. 5 µl of ADP Glo reagent was added to all the wells and spun the plate for 1 min at 1200 rpm and kept it on a shaker at ambient temperature for 60 mins. 10 µl of kinase detection mix was added to all the wells and the plate was read for Luminescence at 495 nm. The amount of ADP released was estimated from ATP/ADP standard curve generated at the same experimental conditions. Emax (Maximal percent activation) and EC50 (concentration for half maximal activation ) were estimated by fitting the dose response data to a sigmoidal curve fitting equation using Graphpad Prism software V. 8.

The structures appear in SMILES notation.

For the compound `Cc1ncoc1C(=O)Nc1ccc2c(c1)S(=O)(=O)N(c1ccc(C(F)(F)F)cc1)CCO2` [Compound 1190, N-(1,1-Dioxido-2-(4-(Trifluoromethyl)Phenyl)-3,4-Dihydro-2H-benzo[b][1,4,5]Oxathiazepin-8-yl)-4-Methyloxazole-5-Carboxamide], the EC50 was less than 20 µM. In addition, under “maximal percent activation”, the Emax lay in the range of 150 to 200%.
As for `Cc1ccncc1C(=O)Nc1ccc2c(c1)S(=O)(=O)N(c1ccc(Cl)cc1)CCO2` [Compound 1209, N-(2-(4-chlorophenyl)-1,1-Dioxido-3,4-Dihydro-2H-Benzo[b][1,4,5] Oxathiazepin-8-yl)-4-Methylnicotinamide], the EC50 lay in the range of 30 to 100 µM. Also, the Emax (maximal percent activation) fell in the range of 150 to 200%.
`Cc1ncoc1C(=O)Nc1ccc2c(c1)S(=O)(=O)N(c1ccc(Cl)cc1)CCO2` [Compound 1210, N-(2-(4-chlorophenyl)-1,1-Dioxido-3,4-Dihydro-2H-Benzo[b][1,4,5]Oxathiazepin-8-yl)-4-Methyloxazole-5-Carboxamide]: the EC50 lay in the range of 30 to 100 µM. In addition, the Emax (maximal percent activation) was greater than 200%.
In the same order, the values of `Cc1ccncc1C(=O)Nc1ccc2c(c1)S(=O)(=O)N(c1ccc(C(F)(F)F)cc1)CCO2` [Compound 1212, N-(1,1-Dioxido-2-(4-(Trifluoromethyl)Phenyl)-3,4-Dihydro-2H-Benzo[b][1,4,5]Oxathiazepin-8-yl)-4-Methylnicotinamide] are 20 to 30 µM and 150 to 200%.
Turning to `Cc1nc(C)c(C(=O)Nc2ccc3c(c2)S(=O)(=O)N(c2ccc(C(F)(F)F)cc2)CCO3)o1` [Compound 1974, N-(1,1-Dioxido-2-(4-(Trifluoromethyl)Phenyl)-3,4-Dihydro-2H-Benzo[b][1,4,5]Oxathiazepin-8-yl)-2,4-Dimethyloxazole-5-Carboxamide], the EC50 was in the range of 20 to 30 µM. The Emax (maximal percent activation) lay in the range of 150 to 200%.
For `Cc1ocnc1C(=O)Nc1ccc2c(c1)S(=O)(=O)N(c1ccc(C(F)(F)F)cc1)CCO2` [Compound 1975, N-(1,1-Dioxido-2-(4-(Trifluoromethyl)Phenyl)-3,4-Dihydro-2H-Benzo[b][1,4,5]Oxathiazepin-8-yl)-5-Methyloxazole-4-Carboxamide] the same measures were less than 20 µM and 129 to 149%.
With `O=C(Nc1ccc2c(c1)S(=O)(=O)N(c1ccc(C(F)(F)F)cc1)CCO2)c1cocn1` [Compound 1976, N-(1,1-Dioxido-2-(4-(Trifluoromethyl)Phenyl)-3,4-Dihydro-2H-Benzo[b][1,4,5]Oxathiazepin-8-yl)Oxazole-4-Carboxamide], the half-maximal effective concentration (EC50) fell in the range of 30 to 100 µM. Also, the Emax (maximal percent activation) was in the range of 150 to 200%.
For `Cc1ncoc1C(=O)Nc1ccc2c(c1)S(=O)(=O)N(c1ccc(C(F)(F)F)cc1)CCCO2` [Compound 1989, N-(1,1-Dioxido-2-(4-(Trifluoromethyl) Phenyl)-2,3,4,5-Tetrahydrobenzo[b][1,4,5]Oxathiazocin-9-yl)-4-Methyloxazole-5-Carboxamide] the same measures were 30 to 100 µM and greater than 200%.
As to `Cc1nc(C(=O)Nc2ccc3c(c2)S(=O)(=O)N(c2ccc(C(F)(F)F)cc2)CCO3)co1` [Compound 1992, N-(1,1-Dioxido-2-(4-(trifluoromethyl)Phenyl)-3,4-Dihydro-2H-Benzo[b][1,4,5]Oxathiazepin-8-yl)-2-Methyloxazole-4-Carboxamide], the EC50 fell in the range of 20 to 30 µM. The maximal response (Emax) (maximal percent activation) was 150 to 200%.
As to `O=C(Nc1ccc2c(c1)S(=O)(=O)N(c1ccc(C(F)(F)F)cc1)CCO2)c1cnco1` [Compound 1994, n-(1,1-Dioxido-2-(4-(Trifluoromethyl) Phenyl)-3,4-Dihydro-2H-Benzo[b][1,4,5]Oxathiazepin-8-yl)Oxazole-5-Carboxamide], the EC50 fell in the range of 30 to 100 µM. Moreover, the Emax (maximal percent activation) was greater than 200%.
As to `Cc1ncsc1C(=O)Nc1ccc2c(c1)S(=O)(=O)N(c1ccc(C(F)(F)F)cc1)CCO2` [Compound 2058, N-(1,1-Dioxido-2-(4-(Trifluoromethyl)Phenyl)-3,4-Dihydro-2H-Benzo[b][1,4,5]Oxathiazepin-8-yl)-4-Methylthiazole-5-Carboxamide], the concentration for a half-maximal effect (EC50) is less than 20 µM. Besides, the maximal response (Emax) (maximal percent activation) lay within 150 to 200%.
For `O=C(Nc1ccc2c(c1)S(=O)(=O)N(c1ccc(C(F)(F)F)cc1)CCO2)c1cnc[nH]1` [Compound 2075, N-(1,1-Dioxido-2-(4-(Trifluoromethyl) Phenyl)-3,4-Dihydro-2H-Benzo [b] [1,4,5] Oxathiazepin-8-yl)-1H-Imidazole-5-Carboxamide] the same measures were 20 to 30 µM and 150 to 200%.
For `CC(C)c1ncsc1C(=O)Nc1ccc2c(c1)S(=O)(=O)N(c1ccc(C(F)(F)F)cc1)CCO2` [Compound 2080, N-(1,1-Dioxido-2-(4-(Trifluoromethyl)Phenyl)-3,4-Dihydro-2H-Benzo[b][1,4,5]Oxathiazepin-8-yl)-4-Isopropylthiazole-5-Carboxamide] the same measures were 20 to 30 µM and 129 to 149%.
For `CC(C)c1scnc1C(=O)Nc1ccc2c(c1)S(=O)(=O)N(c1ccc(C(F)(F)F)cc1)CCO2` [Compound 2085, N-(1,1-Dioxido-2-(4-(Trifluoromethyl)phenyl)-3,4-Dihydro-2H-Benzo[b][1,4,5]Oxathiazepin-8-yl)-5-Isopropylthiazole-4-Carboxamide] the same measures were 30 to 100 µM and 150 to 200%.
With `Cn1ccnc1C(=O)Nc1ccc2c(c1)S(=O)(=O)N(c1ccc(C(F)(F)F)cc1)CCO2` [Compound 2090, N-(1,1-Dioxido-2-(4-(Trifluoromethyl)Phenyl)-3,4-Dihydro-2H-Benzo[b][1,4,5]Oxathiazepin-8-yl)-1-Methyl-1H-Imidazole-2-Carboxamide], the EC50 was less than 20 µM. Under “maximal percent activation”, the Emax was in the range of 129 to 149%.
In the same order, the values of `Cc1ccccc1N1CCOc2ccc(NC(=O)c3ncoc3C)cc2S1(=O)=O` [Compound 2096, N-(1,1-dioxido-2-(o-tolyl)-3,4-dihydro-2H-benzo[b][1,4,5]oxathiazepin-8-yl)-5-methyloxazole-4-carboxamide] are 30 to 100 µM and 150 to 200%.
For the compound `Cc1ocnc1C(=O)Nc1ccc2c(c1)S(=O)(=O)N(c1ccccc1)CCO2` [Compound 2135, N-(1,1-dioxido-2-phenyl-3,4-dihydro-2H-benzo[b][1,4,5]oxathiazepin-8-yl)-5-methyloxazole-4-carboxamide], the EC50 is 30 to 100 µM. In addition, where the note is “maximal percent activation”, the Emax lay within 150 to 200%.
Regarding `COc1ccc(N2CCOc3ccc(NC(=O)c4ncoc4C)cc3S2(=O)=O)cc1` [Compound 2167, N-(2-(4-methoxyphenyl)-1,1-dioxido-3,4-dihydro-2H-benzo[b][1,4,5]oxathiazepin-8-yl)-5-methyloxazole-4-carboxamide], the EC50 lay in the range of 30 to 100 µM. Moreover, the Emax (maximal percent activation) is 150 to 200%.
For `Cc1cc(C(=O)Nc2ccc3c(c2)S(=O)(=O)N(c2ccc(C(F)(F)F)cc2)CCO3)ccn1` [Compound 2172] the same measures were 20 to 30 µM and 150 to 200%.
Consider `Cc1cc(C(=O)Nc2ccc3c(c2)S(=O)(=O)N(c2ccc(C(F)(F)F)cc2)CCO3)cc(C)n1` [Compound 2173], for which the EC50 was less than 20 µM. Under “maximal percent activation”, the “ADP GLO DRC: Mean Emax” value is recorded as “B (150-200%, inclusive)”.
For `Cc1ccc(C(=O)Nc2ccc3c(c2)S(=O)(=O)N(c2ccc(C(F)(F)F)cc2)CCO3)cn1` [Compound 2174], the EC50 is 20 to 30 µM. In addition, the Emax (maximal percent activation) was in the range of 129 to 149%.
For `O=C(Nc1ccc2c(c1)S(=O)(=O)N(c1ccc(C(F)(F)F)cc1)CCO2)c1ccncn1` [Compound 2175] the same measures were less than 20 µM and 129 to 149%.
In the same order, the values of `O=C(Nc1ccc2c(c1)S(=O)(=O)N(c1ccc(C(F)(F)F)cc1)CCO2)c1cnn2c1CCC2` [Compound 2179] are 20 to 30 µM and 150 to 200%.
Consider `O=C(Nc1ccc2c(c1)S(=O)(=O)N(c1ccc(C(F)(F)F)cc1)CCO2)c1cncs1` [Compound 2180], for which the EC50 was 20 to 30 µM. In addition, the Emax (maximal percent activation) was 150 to 200%.
`Cc1noc(C)c1C(=O)Nc1ccc2c(c1)S(=O)(=O)N(c1ccc(C(F)(F)F)cc1)CCO2` [Compound 2181]: the EC50 is less than 20 µM. Also, for the setting “maximal percent activation”, the Emax was 129 to 149%.
